Assay results published in patent US7323441B2, “Use of lupin conglutin for the treatment of type II diabetes” (Indena S.p.A., priority 2003, dated 2008).

Test system: glucose plasma levels
Assay: Hypoglycemizing activity in rats after oral glucose administration (2 g/kg)
Type: in vivo, rat
Conditions: 50 mg/kg os, 30 min before glucose 2 g/kg os; male CD rats; AUC 0 to 90 min; mean±M.S.E.
Description: Male CD strain rats, of the starting weight 275-300 g, were used. The animals were housed in makrolon cages in environment with automatic control of light (12 hour light/12 hour darkness cycles), temperature (21±1° C.) and humidity (60±5%).
Lupin conglutin gamma prepared as reported in Example 2 was used. 100 rats (divided into in 5 groups of […] animals each) were pre-treated (time−30 min) with: • Group 1: carrier (1% carboxymethylcellulose [CMC]; 2 ml/kg os) • Group 2: lupin conglutin gamma (50 mg/kg os in 1% CMC) • Group 3: lupin conglutin gamma (100 mg/kg os in 1% CMC) • Group 4: lupin conglutin gamma (200 mg/kg os in 1% CMC) • Group 5: metformin (50 mg/kg os in 1% CMC) […]
Immediately before the glucose administration (time 0 min) and 30, 60 and 90 min after the glucose administration, all the animals (n=5 rats for each time) were anaesthetized with sodium thiopental (50 mg/kg i.p.) and 5 ml of blood was drawn from the vena cava. Blood samples were collected in syringes containing EDTA (7.5 mM) as anticoagulant, and immediately subjected to centrifugation (2000 g×10 min at 4° C.) to obtain the plasma necessary for the enzymatic quantitation of glucose.
The quantitation of the glucose in rat plasma was carried out in triplicate by enzymatic assay (absorbance at 505 nm) and the glucose concentration was expressed in mg/dl. […]

CN(C)C(=N)N=C(N)N [metformin]
area under the curve (AUC) of glucose plasma levels: 1565±201
